Drawing on patent US20240124503A1, “HETEROAROMATIC PHOSPHONIUM SALTS AND THEIR USE TREATING CANCER” (FLORATEK PHARMA S.A., priority 2021, published 2024), this text covers IC50 and Kd for 1 molecule.

One assay relates to esophagus PDX. Description: Cell viability, esophagus PDX (panel statement). Format: cell-based. Conditions: text summary of Table 9; read-out: IC50, esophagus PDX growth. The method, then:
(§1) PDX-derived cell cultures were obtained from tumors explanted from mice and isolated by mechanical and enzymatic dissociation. […] Cells were harvested and seeded in 96-wells plates at a density of 1.25 to 5×10^3 cells/well for cytotoxicity assays. Cells were incubated 48 h at 37° C. prior to addition of test molecules and vehicle (DMSO, 0.1%) at desired final concentrations. Cell viability was assessed before drugs' addition (To) and 5 days after test molecules addition by measuring ATP cell content using CellTiter-Glo® Luminescent Cell Viability Assay (Promega) according to the manufacturer's instructions. Luciferase activity was measured on a luminometer (PerkinElmer® EnVision™). Each concentration of compounds was tested in triplicate.
(§2) Viability was calculated as a percentage of ATP value compared to vehicle treated controls.
(§3) For PDX primary cell cultures, the tumour tissue was washed with PBS containing antibiotic-antimycotic and non-tumour tissue and necrotic tumour tissues were separated. The tumour tissue was transferred to a new dish and cut into 1˜2 mm^3 fragments, resuspended in RPMI-1640 medium and centrifuged at 1,200 rpm for 6 min at room temperature. The pelleted material was resuspended with 15 mL of Tumour Cell Digestion Solution and incubated at 37° C. for 1 hour with agitation. […]

The next assay relates to breast PDX. Nature of the assay: Cell viability, breast PDX (panel statement). Format: cell-based. Particulars: Table 5; read-out: IC50, growth of breast PDX. Here is the method: as §1, §2, §3
The target in assay [1] is T1, RSK2(Kin.Dom.1-N-terminal) (Homo sapiens, UniProt P51812).
T1 construct: Kin.Dom.1; purchased Eurofins (KINOMEscan); host or cells: E. coli BL21-derived host (T7 phage) or HEK-293
Description: KINOMEscan competition binding, RSK2(Kin.Dom.1-N-terminal). The method, then:
Selected compounds were screened for kinase inhibition using the KINOMEscan™ assay (Eurofins) which is based on a competition binding assay that quantitatively measures the ability of a compound to compete with an immobilized, active-site directed ligand. The assay was performed by combining three components: DNA-tagged kinase; immobilized ligand; and the test compound. The ability of the test compound to compete with the immobilized ligand was measured via quantitative PCR of the DNA tag.
Kinase-tagged T7 phage strains were prepared in an E. coli host derived from the BL21 strain. E. coli were grown to log-phase and infected with T7 phage and incubated with shaking at 32° C. until lysis. The lysates were centrifuged and filtered to remove cell debris. The remaining kinases were produced in HEK-293 cells and subsequently tagged with DNA for qPCR detection. Streptavidin-coated magnetic beads were treated with biotinylated small molecule ligands for 30 minutes at room temperature to generate affinity resins for kinase assays. […] Kds were determined using an 11-point 3-fold compound dilution series with three DMSO control points. […] The kinase concentration in the eluates was measured by qPCR. […]
Binding constants (Kds) were calculated with a standard dose-response curve using the Hill equation: Response=Background+[Signal−Background/1+(Kd^Hill Slope/Dose^Hill Slope)] […]

T1 sequence (P51812 68-327 limits assumed): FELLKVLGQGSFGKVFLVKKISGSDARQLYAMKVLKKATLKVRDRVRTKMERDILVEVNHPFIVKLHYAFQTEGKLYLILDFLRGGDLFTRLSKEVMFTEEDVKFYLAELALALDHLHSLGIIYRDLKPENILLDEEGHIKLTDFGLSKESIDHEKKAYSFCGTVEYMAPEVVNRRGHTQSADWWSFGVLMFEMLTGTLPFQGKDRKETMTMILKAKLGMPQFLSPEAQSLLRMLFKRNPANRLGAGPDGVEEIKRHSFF

Turning to `COc1c(O)ccc2c(=O)c(O)c(-c3ccc(CCCC[P+](c4ccccc4)(c4ccccc4)c4ccccc4)cc3)oc12` [SND190, (4-(4-(3,7-Dihydroxy-8-methoxy-4-oxo-4H1-chromen-2-yl)phenyl)butyl)triphenylphosphonium bromide], the IC50 in the assay with esophagus PDX and in the assay with breast PDX was less than 20 µM throughout. Further, the Kd (usually the free concentration of one partner at which half of the binding sites on the other are occupied at equilibrium, for simple one-to-one binding) in assay [1] was 1.7 µM.
